Data set [1] is described as follows: IAM chromatography, normalized capacity factor on esterIAM.PC C10/C3. In kind it is physicochemical. The conditions noted are these: 15% acetonitrile + 85% 0.03 M NH4OAc buffer pH 7.4, 1 mL/min. An excerpt:
(§1) The preferred, if not only surfaces capable of measuring membrane binding constants so far are from a group of immobilized artificial membranes (IAMs). IAMs consist of a monolayer of phospholipids covalently immobilized to a silica surface. Five types of IAM surfaces are typically used: phosphatidylcholine (PC), phosphatidylethanolamine (PE), phosphatidylserine (PS), sphingomyelin (SM), and cholesterol (CL). These IAM silica surfaces are used as the stationary phase in high performance liquid chromatography (HPLC). The IAM columns can be run in parallel with one single MS detection system (multi-column LC/MS) or successively using a one-column LC/MS instrument.
(§2) Dimensions of the columns: 3.0×0.46 cm.
(§3) Wavelength of the UV detector: 220 nm.
(§4) Mobile phase composition: 15% of acetonitrile+85% of 0.03 M NH4OAc buffer (pH 7.4).
(§5) All five compounds were chromatographed on ^esterIAM.PC^C10/C3, ^esterIAM.PE^C10/C3, ^esterIAM.PS^C10/C3, IAM.SM^C10/C3 using the experimental conditions described above. A representative set of normalized capacity factor values (αk′) of these drugs are presented in Table 6 [It should be noted that these values are very much dependent on packing material quality and density, as well as mobile phase composition (particularly the pH). Thus these values are not absolute and may vary from column to column within the same column type].

Data set [2] can be described thus: IAM chromatography, normalized capacity factor on esterIAM.PS C10/C3. The format is physicochemical. To be noted: 15% acetonitrile + 85% 0.03 M NH4OAc buffer pH 7.4, 1 mL/min.
Text: as §1, §2, §3, §4, §5

The nature of data set [3]: IAM chromatography, normalized capacity factor on esterIAM.PE C10/C3. In kind it is physicochemical. The conditions noted are these: 15% acetonitrile + 85% 0.03 M NH4OAc buffer pH 7.4, 1 mL/min.
Text: as §1, §2, §3, §4, §5

Data set [4] in a line: IAM chromatography, normalized capacity factor on IAM.SM C10/C3. In kind it is physicochemical. To be noted: 15% acetonitrile + 85% 0.03 M NH4OAc buffer pH 7.4, 1 mL/min.
Text: as §1, §2, §3, §4, §5

Data set [5] relates to antibody of the Haloperidol ELISA (specific for Haloperidol). The data set can be described thus: Haloperidol ELISA (Neogen competitive ELISA test kit). The format is binding. An excerpt: (§6) ELISA test kits were purchased from Neogen Corporation, Lexington, Ky. […] Structural features that typically produce a positive response for each of these assays are described on FIG. 11.
(§7) ELISA is a method of analysis that relies on specific interactions between antibodies and antigens to detect a variety of substances. The assay (Neogen) operates on the basis of competition between the horseradish peroxidase (HRP) enzyme conjugate and the analyte in the sample for specific binding sites on the precoated antibody microplate. The test kits used for the experiment are 96-well plates precoated with a specific antibody. As described in FIG. 12, the sample or standard solution is first added to the precoated antibody microplate. Next, the diluted enzyme conjugate is added and the mixture is shaken and then incubated at room temperature for one hour. During incubation, competition for binding sites on the microplate is taking place. The plate is then washed removing all unbound material. The bound enzyme conjugate is detected by the addition of a tetramethylbenzidine (TMB) based substrate which generates an optimal color after 30 minutes. […] The extent of color development is inversely proportional to the amount of analyte in the sample or standard. […] Typically, the sensitivity of the selected ELISA assays ranges from ˜0.1 to 20-30 ng/mL depending on the substrate. […]

The next data set deals with tricyclic antibody. Kind of data set: Tricyclic ELISA (Neogen competitive ELISA test kit). To be noted: experiment C, 7-drug mixture; ELISA fingerprint compared with chromatographic fingerprints. The format is binding.
Text: as §6, §7

For data set [6], the system named is antibody of the Benzodiazepines ELISA (specific for compounds belonging to the Benzodiazepine family). The data set can be described thus: Benzodiazepine ELISA (Neogen competitive ELISA test kit). To be noted: experiment C, 7-drug mixture; ELISA fingerprint compared with chromatographic fingerprints. The format is binding.
Text: as §6, §7

Consider `CCn1cc(C(=O)O)c(=O)c2cc(F)c(N3CCNCC3)cc21` [Norfloxacin], for which the “IAM.PC (αk′)” value in data set [1] came out at 0.64. Moreover, the “IAM.PS (αk′)” value in data set [2] is 8.09. For the same compound, in data set [3], the “IAM.PE (αk′)” value stood at 1.31. Further, the “IAM.SM (αk′)” value in data set [4] was 2.09.
On the same counts, the results for Olazoline are 0.52, 4.72, 1.19 and 0.49.
In the same order, the values of `CCN(CC)C(=O)c1cccnc1` [Nikethamide] are 0.33, 0.61, 1.55 and 0.30.
With `O=C(CCCN1CCC(O)(c2ccc(Cl)cc2)CC1)c1ccc(F)cc1` [Haloperidol], the “Haloperidol ELISA activity assigned to compound” value in data set [5] (experiment B, 70-drug mixture, activity profile compared with chromatographic fingerprints) is “activity should be assigned to Haloperidol”; in data set [5] (experiment C, 7-drug mixture, ELISA fingerprint compared with chromatographic fingerprints), “only matches the chromatographic fingerprint of Haloperidol”.
On to `COc1cc(CCN)cc(OC)c1OC` [Mescaline], for which the “IAM.PC (αk′)” value in data set [1] came to 0.62. Besides, in data set [2], the “IAM.PS (αk′)” value was 11.39. For the same compound, the “IAM.PE (αk′)” value in data set [3] worked out at 1.95. The “IAM.SM (αk′)” value in data set [4] is recorded as 0.49.
For the compound `CN1CCCN=C1COC(=O)C(O)(c1ccccc1)C1CCCCC1` (stereo not drawn) [Oxyphencyclimine], in the data set with tricyclic antibody, the “Tricyclic ELISA activity assigned to compound” value is on record as “detected”.
As to `CN1C(=O)CN=C(c2ccccc2)c2cc(Cl)ccc21` [Diazepam], the “Benzodiazepine ELISA activity assigned to compound” value in data set [6] is recorded as “detected by the Benzodiazepine ELISA assay”.
Regarding `Cc1cn([C@H]2C[C@H](N=[N+]=[N-])[C@@H](CO)O2)c(=O)[nH]c1=O` [AZT], the “IAM.PC (αk′)” value in data set [1] is 0.36. The “IAM.PS (αk′)” value in data set [2] is given as 0.36. The “IAM.PE (αk′)” value in data set [3] is reported as 0.76. For the same compound, the “IAM.SM (αk′)” value in data set [4] is recorded as 0.26.

Values taken from patent publication US6579720B1, “Method for activity profiling compound mixtures” (BDC Pharma LLC, priority 1999, dated 2003).
